# Measurements reported in patent publication US20260226084A1, “DUAL RAF AND TUBULIN INHIBITORS AND METHODS OF USE THEREOF” (Deciphera Pharmaceuticals, LLC, priority 2023, published 2026).
# Where two headings read alike, the source gives them in different places.
# Tests used:
# [1] = tested on: tubulin polymerization in HCT-116 cells; experiment: Cellular Tubulin Polymerization Assay; assay type: cell-based; settings: Homo sapiens, Table 5, read-out: Tubulin Cellular
# Experimental: HCT-116 cells (catalog #CCL-247) are obtained from the American Type Culture Collect (ATCC, Manassas, VA). Briefly, cells are grown in McCoy's 5A supplemented with 10% characterized fetal bovine serum (Invitrogen, Carlsbad, CA) and 1% Penicillin/Streptomycin/L-Glutamine at 37° C., 5% CO2, and 95% humidity. Cells are expanded until reaching 70-95% confluency at which point they are subcultured or harvested for assay use. 450000 cells are added per well in 1500 μL complete growth medium in a tissue culture treated, 12-well plate. Plates are incubated for 18 to 24 h at 37° C., 5% CO2, and 95% humidity. At the end of the incubation, 2000 μL of base culture media is added to each well, followed by a serial dilution of compound. Plates are incubated for an additional 1 h at 37° C., 5% CO2, and 95% humidity. Lysates are generated by the addition of 100 μL Lysis and Microtubule Stabilization Buffer 1 (LMS01, Cytoskeleton Inc, Denver, CO) supplemented with GTP (BST06, Cytoskeleton Inc), ATP (BSA04, Cytoskeleton Inc), and Protease Inhibitor Cocktail Stock (PIC02, Cytoskeleton Inc). Cells are scraped off wells using a rubber cell scraper and collected in a clean 96-well plate. Lysates are centrifuged at 1000×g, 37° C. for 10 min and supernatant fraction is placed into an additional 96-well plate. The remaining pellet fraction is reconstituted in 100 μL LMS01 buffer and sonicated for 10 min. Pellet and Supernatant fractions are probed for α-tubulin via western blot analysis on the Jess System or equivalent (Bio-techne, Minneapolis, MN). Data is analyzed using Prism software (Graphpad, San Diego, CA) to calculate IC50values.
# [2] = target: T1, B-Raf kinase (SEQ ID NO: 1) (Homo sapiens, UniProt P15056); experiment: Biochemical Assay for B-Raf (coupled pyruvate kinase/lactate dehydrogenase assay)
# T1 construct: GST (N); purchased Sigma
# Porcine Brain Tubulin = target: T2, Porcine Brain Tubulin (Sus scrofa, UniProt P02550+P02554); experiment: Biochemical Tubulin Polymerization Assay
# T2 construct: Porcine Brain Tubulin (T240); purchased Cytoskeleton, Inc T240; BK011P; host or cells: porcine brain (tissue-purified)
# [3] = target: T3, C-Raf kinase (SEQ ID NO: 2) (Homo sapiens, UniProt P04049, Y340D/Y341D); experiment: Biochemical Assay for C-Raf (coupled pyruvate kinase/lactate dehydrogenase assay)
# T3 construct: C-Raf residues 306-end; Y340D, Y341D with; GST (N); purchased Sigma
# Pa16c cells = experiment: Pa16c Cell Proliferation Assay; assay type: cell-based; settings: Table 2, read-out: Inhibition of cell proliferation in Pa16c (IC50 class)
# Summary of the method: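 Mouse Pa16c cells, 750/well in DMEM with 10% FBS, exposed to serially diluted compound in triplicate for 67 to 72 h at 37° C. Viability read by resazurin reduction over a further 18 to 24 h (ex 540/em 600 nm). IC50 calculated from the dose-response.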
# HPAF-II cells = experiment: HPAF-II Cell Proliferation Assay; assay type: cell-based; settings: Homo sapiens
# Summary of the method: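 HPAF-II cells (750/well) in complete MEM with 10% FBS were exposed to serially diluted compound in triplicate for 115–120 h at 37 °C, 5% CO2. Resazurin was then added for 18–24 h more; fluorescence (ex 540/em 600 nm) gave IC50.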
# HCT-116 cells = experiment: HCT-116 Cell Proliferation Assay; assay type: cell-based; settings: Homo sapiens
# Summary of the method: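 HCT-116 cells, 375/well in McCoy's 5A with 10% FBS, exposed to serial compound dilutions in triplicate for 67 to 72 hours at 37 °C. Viability read by resazurin fluorescence (ex 540/em 600 nm) after a further 4 to 5 h; IC50 values calculated.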
# MiaPaca-2 cells = experiment: MiaPaca-2 Cell Proliferation Assay; assay type: cell-based; settings: Homo sapiens
# Summary of the method: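 Viability was read as resazurin fluorescence (540 nm excitation, 600 nm emission) after 5–6 h with dye. Compounds were tested as serial dilutions in triplicate, with IC50 derived from the dose–response.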
# [4] = 1 mM ATP, read-out: BRAF (inhibition of biochemical activity, IC50)
# [5] = Table 3, read-out: BRAF (IC50 class)
# [6] = Table 3, Tubulin Biochemical assay, read-out: Tubulin Biochem (IC50 class)
# [7] = HPAF-II, HPAF-II cells, Table 2, read-out: Inhibition of cell proliferation in HPAF-II (IC50 class)
# [8] = HPAF-II, Table 3, read-out: HPAF-II (IC50 class)
# [9] = HCT-116, HCT-116 cells, Table 2, read-out: Inhibition of cell proliferation in HCT-116 (IC50 class)
# [10] = HCT-116, Table 3, read-out: HCT-116 (IC50 class)
# [11] = MIA PaCa-2, MiaPaca-2 cells, Table 2, read-out: Inhibition of cell proliferation in MiaPaca-2 (IC50 class)
# [12] = MIA PaCa-2, Table 3, read-out: MiaPaca-2 (IC50 class)
# [13] = 1 mM ATP, read-out: CRAF (inhibition of biochemical activity, IC50)
# [14] = Table 3, read-out: CRAF (IC50 class)
# [15] = Table 4, representative compounds from PCT/US2022/081242, read-out: BRAF IC50
# [16] = Table 4, representative compounds from PCT/US2022/081242, read-out: Tubulin Biochem IC50
# [17] = HPAF-II, Table 4, HPAF-II mutant KRAS pancreatic cancer cell line, read-out: HPAF-II IC50
# [18] = HCT-116, Table 4, HCT-116 mutant KRAS colorectal cancer cell line, read-out: HCT-116 IC50
# [19] = Table 4, representative compounds from PCT/US2022/081242, read-out: CRAF IC50
# [20] = Table 5, HPAF-II mutant KRAS pancreatic cancer cell line, read-out: HPAF-II
# [21] = Table 5, HCT-116 mutant KRAS colorectal cancer cell line, read-out: HCT-116
# [22] = MIA PaCa-2, Table 5, MiaPaca-2 mutant KRAS pancreatic cancer cell line, read-out: MiaPaca-2
# [23] = MIA PaCa-2, Table 4, MiaPaca-2 mutant KRAS pancreatic cancer cell line, read-out: MiaPaca-2 IC50
# T1 sequence (P15056 416-766): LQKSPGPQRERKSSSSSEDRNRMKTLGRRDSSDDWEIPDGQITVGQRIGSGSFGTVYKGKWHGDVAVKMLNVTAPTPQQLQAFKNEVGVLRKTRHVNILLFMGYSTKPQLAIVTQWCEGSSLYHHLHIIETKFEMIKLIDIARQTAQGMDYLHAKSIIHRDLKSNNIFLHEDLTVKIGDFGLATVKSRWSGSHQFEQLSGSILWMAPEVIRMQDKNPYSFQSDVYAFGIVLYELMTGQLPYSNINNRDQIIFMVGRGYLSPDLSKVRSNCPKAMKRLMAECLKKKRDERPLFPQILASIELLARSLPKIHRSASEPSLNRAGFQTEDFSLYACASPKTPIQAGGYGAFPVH
# T2 sequence (P02550 whole entry): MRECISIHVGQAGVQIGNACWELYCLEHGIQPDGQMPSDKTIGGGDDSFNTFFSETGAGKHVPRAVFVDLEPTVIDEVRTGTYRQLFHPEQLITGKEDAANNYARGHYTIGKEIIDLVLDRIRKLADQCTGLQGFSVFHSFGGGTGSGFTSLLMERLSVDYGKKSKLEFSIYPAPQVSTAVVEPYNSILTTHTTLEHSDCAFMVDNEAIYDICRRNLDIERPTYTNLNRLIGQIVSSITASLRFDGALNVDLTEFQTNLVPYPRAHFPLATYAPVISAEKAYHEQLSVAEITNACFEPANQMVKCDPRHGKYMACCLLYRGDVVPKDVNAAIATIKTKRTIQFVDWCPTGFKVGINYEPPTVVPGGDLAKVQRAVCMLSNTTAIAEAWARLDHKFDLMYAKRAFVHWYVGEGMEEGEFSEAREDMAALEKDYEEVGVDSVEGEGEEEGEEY
# T2 sequence (P02554 whole entry): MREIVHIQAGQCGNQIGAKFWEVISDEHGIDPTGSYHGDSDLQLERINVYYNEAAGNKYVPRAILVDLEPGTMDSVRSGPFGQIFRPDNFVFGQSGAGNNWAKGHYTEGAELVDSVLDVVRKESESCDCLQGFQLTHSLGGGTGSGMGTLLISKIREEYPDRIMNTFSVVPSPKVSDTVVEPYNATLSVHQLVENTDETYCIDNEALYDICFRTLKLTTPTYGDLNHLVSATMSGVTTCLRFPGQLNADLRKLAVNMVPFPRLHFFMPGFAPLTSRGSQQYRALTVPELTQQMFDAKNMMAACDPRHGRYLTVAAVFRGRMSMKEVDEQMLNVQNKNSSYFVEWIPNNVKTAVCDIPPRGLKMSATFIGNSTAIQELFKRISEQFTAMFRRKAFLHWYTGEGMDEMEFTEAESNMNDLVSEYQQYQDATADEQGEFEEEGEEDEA
# T3 sequence (P04049 307-648 Y340D/Y341D): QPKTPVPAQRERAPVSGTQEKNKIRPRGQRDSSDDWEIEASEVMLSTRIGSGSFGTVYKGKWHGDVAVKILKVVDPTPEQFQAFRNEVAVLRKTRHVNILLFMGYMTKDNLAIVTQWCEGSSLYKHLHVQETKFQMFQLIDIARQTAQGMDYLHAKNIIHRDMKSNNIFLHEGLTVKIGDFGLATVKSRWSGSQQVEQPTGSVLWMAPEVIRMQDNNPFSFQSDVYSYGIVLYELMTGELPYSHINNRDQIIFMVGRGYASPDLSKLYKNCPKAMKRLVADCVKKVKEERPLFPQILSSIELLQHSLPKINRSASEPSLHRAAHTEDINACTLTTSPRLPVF
SMILES,IC50 [1] [nM],"IC50 [2, 4] [nM]","IC50 [2, 5] [nM]",IC50 (Porcine Brain Tubulin; [6]) [nM],IC50 (HCT-116 cells; [9]) [nM],IC50 (HCT-116 cells; [10]) [nM],IC50 (MiaPaca-2 cells; [11]) [nM],IC50 (MiaPaca-2 cells; [12]) [nM],"IC50 [3, 13] [nM]","IC50 [3, 14] [nM]",IC50 (Pa16c cells) [nM],IC50 (HPAF-II cells; [7]) [nM],IC50 (HPAF-II cells; [8]) [nM],further results
"Cc1ccc2c(Nc3cccc(Cl)c3F)nccc2c1NC(=O)c1csc2c(N)ncnc12 [Belvarafenib, reference compound]",1000 to 10000,,,,,,,,,,,,,"IC50 ([2]; Table 5, previously disclosed BRAF/CRAF inhibitors, read-out: BRAF): < 100 nM; IC50 (Porcine Brain Tubulin; Table 5, previously disclosed BRAF/CRAF inhibitors, read-out: Tubulin Biochem): > 100000 nM; IC50 ([3]; Table 5, previously disclosed BRAF/CRAF inhibitors, read-out: CRAF): < 100 nM"
Cc1ccc(NC(=O)c2ccnc(C(F)(F)F)c2)cc1-c1cc(OCCO)nc(N2CCOCC2)c1 [Naporafenib],1000 to 10000,,,,,,,,,,,,,
Cc1ccc(NC(=O)c2ccnc(C(C)C)c2)cc1-c1ccnc(-c2ccnc(NC(=O)C3CC3)c2)c1 [reference compound],,,,,,,,,,,,,,"IC50 [2, 15]: < 100 nM; IC50 (Porcine Brain Tubulin; [16]): > 100000 nM; IC50 (HPAF-II cells; [17]): 100 to 500 nM; IC50 (HCT-116 cells; [18]): 1000 to 10000 nM; IC50 [3, 19]: < 100 nM"
"Cc1ccc(NC(=O)N2CC[C@@H](CC(F)(F)F)C2)cc1-c1cc(N[C@H](C)CO)nc(N2CCOCC2)c1 [Exarafenib, reference compound]",1000 to 10000,,,,,,,,,,,,,IC50 (HPAF-II cells; [20]): 1000 to 10000 nM; IC50 (HCT-116 cells; [21]): 500 to 1000 nM; IC50 (MiaPaca-2 cells; [22]): 1000 to 10000 nM
Cc1ccc(NC(=O)c2ccnc(C3CC3)c2)cc1-c1ccnc(-c2ccnc(NC(=O)C3CC3)c2)c1 [reference compound],,,,,,,,,,,,,,"IC50 [2, 15]: < 100 nM; IC50 (Porcine Brain Tubulin; [16]): > 100000 nM; IC50 (HPAF-II cells; [17]): 1000 to 10000 nM; IC50 (HCT-116 cells; [18]): 500 to 1000 nM; IC50 (MiaPaca-2 cells; [23]): 1000 to 10000 nM; IC50 [3, 19]: < 100 nM"
"CC(C)(C)c1nc(-c2cccc(NS(=O)(=O)c3c(F)cccc3F)c2F)c(-c2ccnc(N)n2)s1 [Dabrafenib, dabrafenib]",1000 to 10000,,,,,,,,,,,,,
"C[C@@H](NC(=O)c1ncnc(N)c1Cl)c1ncc(C(=O)Nc2cc(C(F)(F)F)c(Cl)cn2)s1 [Tovorafenib, reference compound]",1000 to 10000,,,,,,,,,,,,,IC50 (HPAF-II cells; [20]): 1000 to 10000 nM; IC50 (HCT-116 cells; [21]): 1000 to 10000 nM; IC50 (MiaPaca-2 cells; [22]): 1000 to 10000 nM
Cc1ccc(NC(=O)c2ccnc(C(C)(C)F)c2)cc1-c1ccnc(-c2ccnc(NC(=O)C3CC3)c2)c1 [reference compound],,,,,,,,,,,,,,"IC50 [2, 15]: < 100 nM; IC50 (Porcine Brain Tubulin; [16]): > 100000 nM; IC50 (HPAF-II cells; [17]): 500 to 1000 nM; IC50 (HCT-116 cells; [18]): 100 to 500 nM; IC50 (MiaPaca-2 cells; [23]): 1000 to 10000 nM; IC50 [3, 19]: < 100 nM"
"CCCS(=O)(=O)Nc1ccc(F)c(C(=O)c2c[nH]c3ncc(-c4ccc(Cl)cc4)cc23)c1F [Vemurafenib, vemurafenib]",1000 to 10000,,,,,,,,,,,,,
Cc1ccc(NC(=O)c2cc(C(F)(F)F)cnn2)cc1-c1cc(N[C@H](C)CO)nc(-c2cn[nH]c2)c1 [Example 119],,< 100,< 100,< 3000,< 100,< 100,< 100,< 100,< 100,< 100,< 100,< 100,< 100,

# Now from value to compound, other results behind:
IC50 [1] [nM],"IC50 [2, 4] [nM]","IC50 [2, 5] [nM]",IC50 (Porcine Brain Tubulin; [6]) [nM],IC50 (HCT-116 cells; [9]) [nM],IC50 (HCT-116 cells; [10]) [nM],IC50 (MiaPaca-2 cells; [11]) [nM],IC50 (MiaPaca-2 cells; [12]) [nM],"IC50 [3, 13] [nM]","IC50 [3, 14] [nM]",SMILES,IC50 (Pa16c cells) [nM],IC50 (HPAF-II cells; [7]) [nM],IC50 (HPAF-II cells; [8]) [nM],further results
,< 100,< 100,3000 to 20000,< 100,< 100,100 to 500,100 to 500,< 100,< 100,Cc1ccc(NC(=O)c2cc(C(F)(F)F)cnn2)cc1-c1cc(N[C@H](C)CO)nc(-c2ccnc(NC(=O)C3CC3)c2)c1 [Example 45],100 to 500,< 100,< 100,
,< 100,< 100,< 3000,< 100,< 100,100 to 500,100 to 500,< 100,< 100,Cc1ccc(NC(=O)c2cc(C(C)(C)F)cnn2)cc1-c1ccnc(-c2ccnc(NC(=O)C3CC3)c2)c1 [Example 59],100 to 500,100 to 500,100 to 500,
,< 100,< 100,> 100000,< 100,< 100,100 to 500,100 to 500,< 100,< 100,Cc1ccc(NC(=O)c2cncc(C(F)(F)F)c2)cc1-c1cncc(-c2cc(NC(=O)C3CC3)ncn2)c1 [Example 66],500 to 1000,< 100,< 100,
